Measured values taken from patent US20230248627A1, “COMPOSITION FOR HAIR FOLLICLE MODULATION, METHODS AND USES THEREOF” (priority 2020, published 2023).
Where a name gives a salt, the structure may show the parent alone.

How the values were obtained:
human scalp [1] = assay: Pilot clinical study: hair melanin quantification after topical scalp application; assay type: in vivo; details: for visible effect on hair colour: after 5 weeks of treatment; for Effectiveness (% of volunteers) / Hair Melanin change (% of control), max.: 5 weeks, 3 times per week
Method: All the results present on the following described examples were performed in a pilot clinical study with intervention of cosmetic products (RNEC number: 92938), not contested by the Portuguese Legal Competent Authorities.
This example discloses the treatment of human scalp with a formulation containing a modulation bioactive agent for lightening the hair.
The modulation bioactive agent used in this example was Rivastigmine hydrogen tartrate as lightening agent in a formulation containing water, a thickener agent with emulsifying properties - Lecigel™, a preservative agent - Euxyl® PE 9010, denaturing alcohol and Transcutol® CG.
The volunteers for the application test of the formulation with the modulation agent Rivastigmine hydrogen tartrate had black to medium brown hair.
Each volunteer received the formulation without the agent Rivastigmine hydrogen tartrate and the formulation with the agent Rivastigmine hydrogen tartrate.
(§1) On each volunteer, the hair was shaved in two different posterior scalp locations, of approximately 1 cm^2 each, and the formulations were applied for 5 weeks, three times a week.
(§2) The formulations with and without Rivastigmine were applied directly on scalp. Ten microliters per 1 cm^2 of the control formulation without Rivastigmine hydrogen tartrate were applied to one of the two shaved scalp areas while ten microliters per 1 cm^2 of the formulation with Rivastigmine hydrogen tartrate were applied to the other shaved scalp area.
After the 15th application of formulations with and without the modulation agent, a final picture was taken, the growth rate of the hairs was measured, and some hairs were plucked for further tests.
The hair melanin quantification process was performed after the clinical cosmetic study conclusion, using hairs collected from the scalp areas treated with and without Rivastigmine hydrogen tartrate in a formulation. The control means the hair collected from the scalp area treated with the formulation without Rivastigmine hydrogen tartrate.
In an embodiment, the method for quantifying melanin in hair was as described by Fernandes B. et al., 2016 [51]. Hair samples were digested in NaOH and the solutions obtained normalized to 1 mg/mL of hair. Complete oxidation of hair lysates was performed with hydrogen peroxide and melanin content in hair samples calculated by fluoresce spectroscopy using a standard curve generated by the fluorescence of oxidized melanin standards. Melanin change in hair treated with a formulation with Rivastigmine was calculated using the following mathematical formula: […]
This example discloses the treatment of human scalp with a formulation containing a modulation bioactive agent for darkening the hair.
In an embodiment, the bioactive agent used in this example was Dipyridamole as darkening agent in a formulation containing water, a thickener agent with emulsifying properties - Lecigel™, a preservative agent - Euxyl® PE 9010, denaturing alcohol and Transcutol® CG.
The volunteers for the application test of the formulation with the modulation bioactive agent Dipyridamole had blond hair of different shades.
Each volunteer received the formulation without the agent Dipyridamole and the formulation with the agent Dipyridamole.
as §2, with “In an embodiment, the” for “The”, “Dipyridamole” for “Rivastigmine”, “Dipyridamole” for “Rivastigmine hydrogen tartrate”
(§3) After the 15th application of formulations with and without the modulation bioactive agent, a final picture was taken, the growth rate of the hairs was measured, and some hairs were plucked for further tests.
The hair melanin quantification process was performed after the clinical cosmetic study conclusion, using hairs collected from the scalp areas treated with and without Dipyridamole in a formulation. […]

[2] = system: human melanocytes (SK-MEL-23 cell line); assay: Intracellular melanin quantification in melanocytes treated in vitro; assay type: cell-based; details: 10 µM dipyridamole, 1% (v/v) DMSO, 3 days, normalized by protein levels
Method: This example discloses an “in vitro” treatment of human melanocytes (SK-MEL-23 cell line) with a solution containing a modulation bioactive agent for darkening the skin.
In an embodiment, the bioactive agent used in this example was Dipyridamole as darkening agent in a solution containing water and DMSO.
Cells were seeded on 24-well plates at density of 9.0x10^4 cells/well and treated next day with 10 µM of dipyridamole and 1% (v/v) DMSO. In the control, cells were seeded on 24-well plates at density of 9.0x10^4 cells/well and treated next day with 1% (v/v) DMSO.
The intracellular melanin quantification was performed after 3 days. The method for quantifying melanin in hair was as described by Fernandes B. et al., 2016 [51]. The melanin contents were normalized by protein levels in each sample (DC Protein assay). Melanin change in cells treated with Dipyridamole was calculated using the following mathematical formula: […]

human scalp [3] = assay: Pilot clinical study: hair curvature index after topical scalp application; assay type: in vivo; details: for visible effect on hair shape: after 5 weeks of treatment; for Effectiveness (% of volunteers) / Hair shape change (% of control), max. / Hair shape change (% of control), mean: 5 weeks, 3 times per week; for Hair shape change (% of control), max. / Hair shape change (% of control), mean: curvature index
From the text: This example discloses the treatment of human scalp with a formulation containing a modulation bioactive agent for straightening the hair.
The bioactive agent used in this example was Midodrine hydrochloride as straightening agent in a formulation containing water, a thickener agent with emulsifying properties - Lecigel™, a preservative agent – Euxyl® PE 9010, denaturing alcohol and Transcutol® CG.
The volunteers for the application test of the formulation with the modulation bioactive agent Midodrine hydrochloride had curly hair.
Each volunteer received the formulation without the agent Midodrine hydrochloride and the formulation with the agent Midodrine hydrochloride.
as §1
as §2, with “Midodrine” for “Rivastigmine”, “Midodrine hydrochloride” for “Rivastigmine hydrogen tartrate”
After the 15th application of formulations with and without the modulation agent, a final picture was taken showing both sites of application, the growth rate of the hairs was measured, and some hairs were plucked for further tests.
(§4) The curvature index was determined after the clinical cosmetic study conclusion, using hairs collected from the scalp areas treated with and without the modulation bioactive agent in a formulation. The control was the hair collected from scalp area treated with the formulation without the modulation bioactive ingredient.
The effect on curvature index was calculated according to the following formula: […]
Each hair was individually measured over a white paper (hair in a relaxed form) and a force was applied in order to keep the hair straight (under stress) and, in this way, measure the length of hair in stressed form.
This example discloses the treatment of human scalp with a formulation containing a modulation bioactive agent for curling the hair.
The modulation bioactive agent used in this example was Topiramate as curling agent in a formulation containing water, a thickener agent with emulsifying properties - Lecigel™, a preservative agent - Euxyl® PE 9010, denaturing alcohol and Transcutol® CG.
The volunteers for the application test of the formulation with the modulation agent Topiramate had straight hair.
Each volunteer received the formulation without the agent Topiramate and the formulation with the agent Topiramate.
as §2, with “Topiramate” for “Rivastigmine”, “Topiramate” for “Rivastigmine hydrogen tartrate”
as §3
as §4, with “collected from the scalp area” for “collected from scalp area”

[4] = Straightening, 0.25% w/w formulation, curly-haired volunteers
[5] = Curling, 1.75% w/w formulation, straight-haired volunteers

`OCCN(CCO)c1nc(N2CCCCC2)c2nc(N(CCO)CCO)nc(N3CCCCC3)c2n1` [Dipyridamole] was tested, and the “visible effect on hair colour” value (human scalp [1]; 0.01% w/w formulation on scalp) was “induced a darkening effect”, the “Effectiveness (% of volunteers)” value (human scalp [1]; Darkening, 0.01% w/w formulation on scalp, blond hair) was 67.0 % of volunteers and the “Hair Melanin change (% of control), max.” value (human scalp [1]; Darkening, 0.01% w/w formulation, blond hair) was “+57.9%”. For the same molecule, the “increase in melanin production relative to the control experiment” value [2] was 3.5 fold.
With `COc1ccc(OC)c(C(O)CNC(=O)CN)c1` (stereo not drawn) [Midodrine HCl, Midodrine hydrochloride] the “visible effect on hair shape” value (human scalp [3]; 0.25% w/w formulation on scalp, very curly hair) was “induced a straightening effect”, the “Effectiveness (% of volunteers)” value (human scalp [3]; Straightening, 0.25% w/w formulation on scalp, curly-haired volunteers) was 75.0% and the “Hair shape change (% of control), max.” value (human scalp [3]; [4]) was “+120.0%”. The “Hair shape change (% of control), mean” value (human scalp [3]; [4]) was “+76.0%”.
For `CCN(C)C(=O)Oc1cccc([C@H](C)N(C)C)c1` [Rivastigmine, Rivastigmine hydrogen tartrate], the “visible effect on hair colour” value (human scalp [1]; 0.2% w/w formulation on scalp) was “induced a lightening effect”, the “Effectiveness (% of volunteers)” value (human scalp [1]; Lightening, 0.2% w/w formulation on scalp, black to medium brown hair) was 50.0 % of volunteers and the “Hair Melanin change (% of control), max.” value (human scalp [1]; Lightening, 0.2% w/w formulation, black to medium brown hair) was -26.3%.
`CC1(C)O[C@@H]2[C@@H](CO[C@@]3(COS(N)(=O)=O)OC(C)(C)O[C@@H]23)O1` [Topiramate] was tested, and the “visible effect on hair shape” value (human scalp [3]; 1.75% w/w formulation on scalp, straight hair) was “induced a curling effect”, the “Effectiveness (% of volunteers)” value (human scalp [3]; Curling, 1.75% w/w formulation on scalp, straight-haired volunteers) was 83.3% and the “Hair shape change (% of control), max.” value (human scalp [3]; [5]) was -11.0%. For the same molecule, the “Hair shape change (% of control), mean” value (human scalp [3]; [5]) was -10.0%.
